Test results from patent US20040110676A1, “Methods for modulating cell survival” (priority 2000, published 2004).

Legend:
hippocampal neurons = assay: Kainic acid-induced seizure neurodegeneration in YAC transgenic mice; type: in vivo
Protocol: Yeast artificial chromosome (YAC) transgenic mice were generated that over-express wild-type human htt at 2-3 times the levels of endogenous htt in wild-type mice (FVB/NJ) (Hodgson et al.(1996) Hum. Mol. Genet. 5, 1875-1885). Fifteen of these transgenic and 23 control FVB/NJ mice 4-8 months of age each received a single intraperitoneal injection of 25 mg/kg kainic acid (KA) or an equal volume of vehicle (PBS). Intraperitoneal injections of kainic acid injections cause prolonged seizures in mice, and each mouse was observed continuously for two hours following injection. The occurrence, severity, and duration of seizures was recorded.
(§1) One week following KA injection, brains were removed from one group of the mice and immediately frozen in isopentene on dry ice. Serial 30 μm coronal cryostat sections were cut through the entire hippocampus. After every fifth section, two sections were removed for quantitative analysis and fixed in 3% paraformaldehyde for 30 minutes in preparation for histochemical staining. Degenerating neurons were identified in hippocampal sections by Fluoro-Jade™ histochemistry (Histo-Chem Inc.), silver staining (FD Neurotechnologies) and by TUNEL™ (Boehringer Mannheim). Fluoro-Jade™ is a fluorescent stain that labels degenerating neurons in fixed brain sections. The total number of degenerated hippocampal neurons labeled with Fluoro-Jade™ was recorded from the CA1, CA3, and total hippocampus regions of each section selected for quantitative analysis. Slide-mounted sections were viewed with a Zeiss (Axiovert) fluorescent microscope, digital photomicrographs were captured with a cooled CCD camera (Princeton), and degenerating hippocampal neurons manually counted in a blinded fashion. To assess the role of caspase activation in this process, the hippocampus and cerebellum were removed from a second group of animals 8 hours following KA-induced seizures. Caspase activity was measured in homogenized hippocampal and cerebellar samples using the fluorogenic substrate acetylated DEVD aminofluorocoumarin. DEVD-ase activity was standardized to protein content as determined by standard Lowry analysis.

[1] = Retrospective analysis of tumor development in transgenic mouse colony; type: in vivo, mice
Protocol: A retrospective analysis was performed to examine the total numbers of mice (identified by the animal colony health staff) that developed tumors in the colony of transgenic mice. The records of all mice diagnosed with tumors over a 6 month period were examined, in a group of mice over-expressing wild-type human htt and their wild-type littermates. […] The average age of tumor development was younger in the transgenic group 13.8 months compared to 17.1 months for wild-type littermates. The majority of identified tumors in male mice were testicular tumors.

NIH/3T3 cells = assay: Anoikis assay on poly-HEMA coated plates, annexin-V-FITC/PI; type: cell-based, murine; details: detached, 8 hours, p<0.05 vs parental cells
From the text: Using the murine transformed fibroblast cell line, NIH/3T3, the anoikis-resistance properties of wild type htt (15 glutamine repeat) and mutant htt (138 glutamine repeat) were investigated. NIH/3T3 cells require a matrix for attachment in order to experience optimum growing conditions. When detached from the supporting matrix, they experience a high rate of apoptosis. NIH/3T3 cells were transfected with a mammalian expression vector containing wild type htt (15 glutamine repeat) or mutant htt (138 glutamine repeat). Untransfected and transfected NIH/3T3 cells were grown on cell culture plates, whose plastic surface served as a substrate for matrix deposition and subsequent cellular attachment, or on poly-HEMA coated cell culture plates. The nonionic nature of poly-HEMA inhibits both matrix deposition and subsequent cell attachment. […] The cells were cultured in DMEM with 10% serum for 8 hours under attached conditions on plastic plates or under detached conditions on poly-HEMA-coated plastic plates. Cells were harvested, counted and viability was assessed via annexin-V-FITC and propidium iodide (PI) staining.

NIH3T3 cells [2] = assay: Cellular proliferation after transient transfection, colorometric assay of cell number; type: cell-based
Protocol: The ability of NIH3T3 cells to overcome contact inhibition when transfected with different gene constructs has been used for many years to assess oncogenic potential of certain genes and to identify potential oncogenes. Cellular proliferation was assessed following transient transfections of NIH3T3 cells using a standardised colorometric assay of cell number. The effect of htt on cellular growth was examined and compared to the effect of a known oncogene, ras (FIG. 17). NIH3T3 cells transfected with htt constructs show a significant increase in cellular proliferation (5-6 fold increase in proliferation compared to control vector) that is similar to the effect of ras.

[3] = system: DEVD-ase activity (caspase-2, -3, -7); assay: DEVD-ase (caspase) activity after kainic acid-induced seizures; type: in vivo, mice; details: 8 hours after KA-induced seizures
Protocol: as §1, with “To assess the role of caspase activation in this process, the hippocampus and cerebellum were removed from a second group of animals 8 hours following KA-induced seizures.” left out

NIH3T3 cells [4] = assay: Soft agar colony formation and transformation of retrovirally transfected cells; type: cell-based
Protocol: Retroviral introduction of the S421 mutants into NIH3T3 cells was used to examine the oncogenic (proliferative) effects of phosphorylation on serine 421. […] To test the oncogenic potential of htt and to examine the effect of phosphorylation of htt at S421 on cell proliferation, a soft agar assay was conducted in NIH3T3 cells (FIG. 21). […] Mutant htt (HD138) transfection leads to no (0%) soft agar colonies.

[5] = Body weight of transgenic mice over-expressing wild-type htt; type: in vivo; details: transgenic mice aged 5-8 months over-expressing wild-type htt
From the text: One of the roles of the pro-survival (e.g. anti-apoptotic) function of wild-type htt may be in control of tissue mass and cellular proliferation. Increased levels of wild-type htt expression can lead to increased body tissue mass and may predispose mice to the development of tumors. The effect of over-expression of human wild-type htt on the body weight of transgenic mice was compared to wild-type mice (FIG. 16). […] The average body weight was approximately 25% greater for the transgenic mice compared to wild-type. […] Over production of cells in the body can have a variety of unwanted outcomes including but not limited to obesity or cancer. This may be due to decreased naturally occurring apoptosis or increased cellular proliferation.

With “wild-type htt: wild-type human huntingtin protein, polyglutamine tract of less than 35 glutamines; over-expressed in YAC line 212 mice or transfected (15 glutamine repeat)” the “average number of degenerating neurons per animal (Fluoro-Jade)” value (hippocampal neurons; CA1 region, 25 mg/kg KA i.p., one week, control 2360) was 3, the “average number of degenerating neurons per animal (Fluoro-Jade)” value (hippocampal neurons; CA3 region, 25 mg/kg KA i.p., one week, control 2003) was 79 and the “fold less degenerating hippocampal neurons than control animals” value (hippocampal neurons; after KA-induced seizures) was “approximately 50 fold”. For the same substance, the “TUNEL labeled apoptotic hippocampal neurons” value (hippocampal neurons; after KA-induced seizures, transgenic mice) was “few apoptotic hippocampal neurons”, the “argyrophyllic labelling of neuronal soma (silver staining)” value (hippocampal neurons; hippocampal sections after KA-induced seizures, transgenic vs wild-type mice) was “dramatically reduced” and the “average number of degenerating hippocampal neurons per animal (Fluoro-Jade)” value (hippocampal neurons; total hippocampus, mice expressing 2-3 times endogenous htt levels, 25 mg/kg KA i.p., one week, control 4362) was 81. The “mice identified with tumors that were transgenic” value ([1]; 6 month period, 38/45) was 84.5%, the “average age of tumor development” value ([1]; transgenic group, wild-type littermates 17.1 months) was 13.8 months and the “protection from cell death induced by anoikis” value (NIH/3T3 cells) was “Protection from cell death induced by anoikis”. For the same substance, the “increase in proliferation compared to control vector” value (NIH3T3 cells [2]) was 5-6 fold, the “cerebellar caspase activation (DEVD-ase activity)” value ([3]; cerebellum, wild-type mice 8.68 +/−1.67, no significant difference) was 13.66 +/−2.32 and the “hippocampal caspase activation (DEVD-ase activity)” value ([3]; hippocampus, wild-type mice 20.8 +/−1.77, P=0.02) was 14.5 +/−1.49. For the same substance, the soft agar colonies (NIH3T3 cells [4]; retrovirally transfected NIH3T3 cells, control cells about 5%) was “about 15%”, the “increase in number of colonies over control cells” value (NIH3T3 cells [4]; soft agar, NIH3T3 cells) was 3 fold and the morphologic transformation (NIH3T3 cells [4]; stable retroviral transfection of NIH3T3 cells) was “malignant, morphologic transformation”. The “average body weight greater than wild-type mice” value [5] was “approximately 25%”.
